Measured values from patent US20100035824A1, “Synergistic Pharmaceutical Composition” (priority 2005, published 2010).

Tested on: collagen-induced thrombocyte aggregation of human blood plasma which is rich of platelets
Experiment: Collagen-induced thrombocyte aggregation in platelet-rich human plasma (aggregometry)
Protocol: While the other conditions of the experiment remained the same as in Example 1, the collagen-induced thrombocyte aggregation was measured with different concentrations of genistein and glutamic acid dipeptide.

O=c1c(-c2ccc(O)cc2)coc2cc(O)cc(O)c12 [genistein, Genistein]
maximum thrombocyte aggregation (Example 3: 50 uM genistein, absence of glutamic acid dipeptide): 25%
maximum thrombocyte aggregation (Example 4: 50 uM genistein, 0 uM alanine dipeptide, control about 70%): about 60%
maximum thrombocyte aggregation (genistein 100 uM, collagen-induced, control without genistein about 65%): about 35%
maximum thrombocyte aggregation (genistein 150 uM, collagen-induced, control about 65%): about 23%
maximum thrombocyte aggregation (genistein 200 uM, collagen-induced, control about 65%): about 5%

glutamic acid dipeptide
thrombocyte aggregation (glutamic acid dipeptide 100 μmolar, without genistein, control 65%): about 60%
